Like-named read-outs stand apart in the source and are kept apart here.
Columns and labels:
Format in all cases: in vivo
[1] = test system: Phakopsora pachyrhizi; test: Fungicidal activity: Asian soybean rust (PHAKPA), disease control on soybean seedlings; settings: High volume at 25 ppm
Procedure: Technical grades of materials were dissolved in acetone, which were then mixed with nine volumes of water containing 0.011% Tween 20. The fungicide solutions were applied onto soybean seedlings using an automated booth sprayer to run-off. All sprayed plants were allowed to air dry prior to further handling.
Soybean plants (variety Williams 82) were grown in soil-less Metro mix, with one plant per pot. Two weeks old seedlings were used for testing. Plants were inoculated either 3 days prior to or 1 day after fungicide treatments. Plants were incubated for 24 h in a dark dew room at 22° C. and 100% relative humidity then transferred to a growth room at 23° C. for disease to develop. Disease severity was assessed on the sprayed leaves.

[2] = test system: Zymoseptoria tritici; test: Fungicidal activity: leaf blotch of wheat (SEPTTR), percent disease control on wheat seedlings; settings: Zymoseptoria tritici, LV (low volume) activity at 121.5 g/H
Procedure: Technical grades of materials were dissolved in acetone, which were then mixed with nine volumes of water containing 110 ppm Triton X-100. The fungicide solutions were applied onto wheat seedlings using an automated booth sprayer to run-off. All sprayed plants were allowed to air dry prior to further handling. All fungicides were evaluated using the aforementioned method for their activity vs. all target diseases, unless stated otherwise. Wheat leaf blotch and brown rust activity were also evaluated using track spray applications, in which case the fungicides were formulated as EC formulations, containing 0.1% Trycol 5941 in the spray solutions. Wheat plants (variety Yuma) were grown from seed in a greenhouse in 50% mineral soil/50% soil-less Metro mix until the first leaf was fully emerged, with 7-10 seedlings per pot. These plants were inoculated with an aqueous spore suspension of Zymoseptoria tritici either prior to or after fungicide treatments. After inoculation the plants were kept in 100% relative humidity (one day in a dark dew chamber followed by two to three days in a lighted dew chamber at 20° C.) to permit spores to germinate and infect the leaf. The plants were then transferred to a greenhouse set at 20° C. for disease to develop. When disease symptoms were fully expressed on the 1st leaves of untreated plants, infection levels were assessed on a scale of 0 to 100 percent disease severity. Percent disease control was calculated using the ratio of disease severity on treated plants relative to untreated plants.

[3] = test system: Puccinia triticina; test: Fungicidal activity: wheat brown rust (PUCCRT), percent disease control on wheat seedlings; settings: Puccinia triticina, LV (low volume) activity at 121.5 g/H
Procedure: Technical grades of materials were dissolved in acetone, which were then mixed with nine volumes of water containing 110 ppm Triton X-100. The fungicide solutions were applied onto wheat seedlings using an automated booth sprayer to run-off. All sprayed plants were allowed to air dry prior to further handling. All fungicides were evaluated using the aforementioned method for their activity vs. all target diseases, unless stated otherwise. Wheat leaf blotch and brown rust activity were also evaluated using track spray applications, in which case the fungicides were formulated as EC formulations, containing 0.1% Trycol 5941 in the spray solutions. Wheat plants (variety Yuma) were grown from seed in a greenhouse in 50% mineral soil/50% soil-less Metro mix until the first leaf was fully emerged, with 7-10 seedlings per pot. These plants were inoculated with an aqueous spore suspension of Puccinia triticina either prior to or after fungicide treatments. After inoculation the plants were kept in a dark dew room at 22° C. with 100% relative humidity overnight to permit spores to germinate and infect the leaf. The plants were then transferred to a greenhouse set at 24° C. for disease to develop. Fungicide formulation, application and disease assessment followed the procedures as described in the Example A. Results of the evaluations are shown below in Table 4.

[4] = 24 h, 1 Day Protectant, read-out: PHAKPA 1DP disease control rating
[5] = 72 h, 3 Day Curative, read-out: PHAKPA 3DC disease control rating
[6] = 24 h, 1 Day Protectant, read-out: SEPTTR 1DP disease control rating
[7] = 72 h, 3 Day Curative, read-out: SEPTTR 3DC disease control rating
[8] = 24 h, 1 Day Protectant, read-out: PUCCRT 1DP disease control rating
[9] = 72 h, 3 Day Curative, read-out: PUCCRT 3DC disease control rating

Compound	pest or weed control at 25 ppm [1, 4]	pest or weed control at 25 ppm [1, 5]	pest or weed control at 121.5 g/ha [2, 6]	pest or weed control at 121.5 g/ha [2, 7]	pest or weed control at 121.5 g/ha [3, 8]	pest or weed control at 121.5 g/ha [3, 9]
COc1ccnc(C(=O)N[C@@H](C)C(=O)O[C@@H](C)[C@H](Sc2ccc(F)cc2C)c2ccc(F)cc2C)c1OC(C)=O [Compound 76]	≤ 80%	≤ 80%	> 80%	> 80%	≤ 80%	≤ 0%
COc1ccnc(C(=O)N[C@@H](C)C(=O)O[C@@H](C)[C@H](Sc2ccccc2)c2ccc(C)cc2)c1OC(C)=O [Compound 77]	≤ 80%	≤ 80%	> 80%	≤ 80%	> 80%	≤ 80%
COc1ccnc(C(=O)N[C@@H](C)C(=O)O[C@@H](C)[C@H](Sc2ccccc2)c2ccc(F)cc2C)c1OC(C)=O [Compound 78]	≤ 80%	≤ 0%	> 80%	> 80%	≤ 80%	≤ 0%
COc1ccnc(C(=O)N[C@@H](C)C(=O)O[C@@H](C)[C@H](Sc2ccccc2)c2ccccc2)c1OCOC(=O)C(C)C [Compound 79]	≤ 80%	≤ 80%	> 80%	> 80%	> 80%	≤ 80%
COc1ccnc(C(=O)N[C@@H](C)C(=O)O[C@@H](C)[C@H](Sc2ccccc2)c2ccccc2)c1OCOC(C)=O [Compound 80]	≤ 80%	≤ 80%	≤ 80%	≤ 80%	> 80%	≤ 80%
COc1ccnc(C(=O)N[C@@H](C)C(=O)O[C@@H](C)[C@H](Sc2ccccc2)c2ccccc2)c1OC(=O)C(C)C [Compound 81]	≤ 80%	≤ 80%	≤ 80%	≤ 80%	≤ 80%	≤ 80%
COc1ccnc(C(=O)N[C@@H](C)C(=O)O[C@@H](C)[C@H](Sc2ccccc2)c2ccccc2)c1OC(C)=O [Compound 82]	≤ 80%	≤ 80%	≤ 80%	≤ 80%	> 80%	≤ 80%
COc1ccnc(C(=S)N[C@@H](C)C(=O)O[C@@H](C)[C@H](Sc2ccc(F)cc2C)c2ccccc2)c1OC(C)=O [Compound 83]	–	–	≤ 80%	≤ 0%	≤ 80%	≤ 0%
COc1cc(F)ccc1[C@@H](Sc1ccccc1)[C@H](C)OC(=O)[C@H](C)NC(=O)c1nccc(OC)c1OC(C)=O [Compound 84]	≤ 80%	≤ 0%	> 80%	≤ 0%	≤ 80%	≤ 80%
COc1ccnc(C(=S)N[C@@H](C)C(=O)O[C@@H](C)[C@H](Sc2ccccc2)c2ccc(F)cc2)c1OC(C)=O [Compound 85]	≤ 80%	≤ 0%	≤ 80%	≤ 0%	≤ 80%	≤ 0%

— patent US10173982B2, “Picolinamides as fungicides” (Dow AgroSciences LLC, priority 2016, dated 2019)
